Measurements published in ChEMBL document CHEMBL1150729, “Constituents of Paramichelia baillonii: a new antitumor germacranolide alkaloid” (1987).
≈ marks a conversion by molar mass, not a printed value. Calls of active or inactive are those of the source. The rule behind the calls is not given here.

Key:
Assay type in all cases: functional
[1] = (§1) Cytotoxicity against human 9KB cells; conditions: read-out: ED50 (the source's name)
[2] = Cytotoxicity against human Laryngeal epidermoid carcinoma cells; conditions: read-out: ED50 (the source's name)
[3] = system: 9KB; experiment: as §1
[4] = system: KB; experiment: Cytotoxicity against human KB cells; conditions: read-out: ED50 (the source's name)

For O=C1c2ccccc2-c2c3c(cc4ccnc1c24)OCO3 [LIRIODENINE], the EC50 [1] was 1.6 µg/mL (≈ 5.81 µM).

C=C1C(=O)O[C@@H]2C3O[C@]3(C)CC/C=C(\C)CC[C@@H]12 (stereo not given in full) showed an EC50 [2] of 0.76 µg/mL (≈ 3.06 µM) and an EC50 [1] of 0.45 µg/mL (≈ 1.81 µM).

With C/C1=C\CC[C@@]2(C)O[C@H]2[C@H]2OC(=O)[C@@H](C)[C@@H]2CC1 the Activity [3] was “inactive”.

In the case of C/C1=C\CC[C@@]2(C)O[C@H]2[C@H]2OC(=O)[C@@H](CNC[C@@H]3C(=O)O[C@H]4[C@H]3CC/C(C)=C/CC[C@@]3(C)O[C@@H]43)[C@@H]2CC1, the EC50 [4] is reported as 0.6 µg/mL (≈ 1.17 µM).
